# Values joined by “and” are separate entries in the source; they are usually repeats but may differ in a detail not shown here. Identical values can stand only once.
# Assays:
# [1] = biological target: T1, Type-1 angiotensin II receptor (Oryctolagus cuniculus, UniProt P34976); assay: Ability to displace [125I]Sar1-Ile8-AII from angiotensin II receptor, type 1 in rabbit aorta in presence of 0.2% bovine serum albumin (BSA) was determined in vitro; assay type: tissue-based
# T1 sequence (P34976 whole entry): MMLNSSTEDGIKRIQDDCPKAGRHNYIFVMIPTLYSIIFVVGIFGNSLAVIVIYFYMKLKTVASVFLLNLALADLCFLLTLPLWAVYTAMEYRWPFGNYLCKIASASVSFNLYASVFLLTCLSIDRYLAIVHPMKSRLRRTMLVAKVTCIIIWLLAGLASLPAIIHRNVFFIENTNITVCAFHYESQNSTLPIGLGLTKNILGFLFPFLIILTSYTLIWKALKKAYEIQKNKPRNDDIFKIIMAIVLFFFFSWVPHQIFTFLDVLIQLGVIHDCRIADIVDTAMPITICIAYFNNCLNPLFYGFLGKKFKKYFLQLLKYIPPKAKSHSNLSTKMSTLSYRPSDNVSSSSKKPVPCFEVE
# [2] = biological target: T1, Type-1 angiotensin II receptor; assay: Displacement of [125I]Sar1-Ile8-AII (without BSA) from type 1 Angiotensin II receptor of rabbit aorta; assay type: tissue-based
# [3] = biological target: T2, Type-2 angiotensin II receptor (Homo sapiens) (UniProt P50052); assay: In vitro antagonist activity against the Angiotensin II (type 2) receptor.; assay type: functional
# T2 sequence (whole entry): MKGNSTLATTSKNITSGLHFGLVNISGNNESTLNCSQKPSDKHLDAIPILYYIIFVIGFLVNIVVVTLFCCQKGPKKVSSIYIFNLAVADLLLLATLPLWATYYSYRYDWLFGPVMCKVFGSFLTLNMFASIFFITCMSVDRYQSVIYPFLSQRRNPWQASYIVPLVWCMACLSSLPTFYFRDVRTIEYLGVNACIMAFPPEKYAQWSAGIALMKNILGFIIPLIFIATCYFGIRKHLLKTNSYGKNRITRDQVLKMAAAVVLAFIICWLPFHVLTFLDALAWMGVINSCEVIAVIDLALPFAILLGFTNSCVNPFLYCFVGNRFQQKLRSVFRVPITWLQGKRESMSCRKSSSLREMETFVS
# [4] = biological target: Angiotensin II receptor (Rattus norvegicus) (UniProt P29089+P25095+P35351); assay: Duration of action as time for pressor response to fall below 30% for a single bolus by intravenous dose; assay type: functional, organism-based
# [5] = system: Rattus norvegicus; assay: Compound was evaluated in vivo for inhibition of the AII pressor response in normotensive rat at dose 1 mg/kg, iv after 1.8 hour; assay type: functional
# [6] = system: Rattus norvegicus; assay: Compound was evaluated in vivo for inhibition of the AII pressor response in normotensive rat at dose 1 mg/kg, iv after 0.5 hour; assay type: functional
# [7] = system: Rattus norvegicus; assay: Compound was evaluated in vivo for inhibition of the AII pressor response in normotensive rat at dose 1 mg/kg, iv after 0.2 hour; assay type: functional
# [8] = system: Rattus norvegicus; assay: Compound was evaluated in vivo for inhibition of the AII pressor response in normotensive rat at dose 0.3 mg/kg, iv; assay type: functional
# [9] = system: Rattus norvegicus; assay: The duration of action is expressed as the time for the % inhibition of pressor response to fall below 30% for a single bolus of the drug administered perorally.; assay type: functional
# [10] = system: Rattus norvegicus; assay: Compound was evaluated in vivo for inhibition of the AII pressor response in normotensive rat at dose 3 mg/kg, iv after >6 hour; assay type: functional
# [11] = system: Rattus norvegicus; assay: Compound was evaluated in vivo for inhibition of the AII pressor response in normotensive rat at dose 3 mg/kg, p.o. after >6 hour; assay type: functional; conditions: route oral
# [12] = system: Rattus norvegicus; assay: Compound was evaluated in vivo for inhibition of the AII pressor response in normotensive rat at dose 1 mg/kg, iv after 0.3 hour; assay type: functional
# [13] = system: Rattus norvegicus; assay: Compound was evaluated in vivo for inhibition of the AII pressor response in normotensive rat at dose 0.3 mg/kg, p.o. after >3.5 hour; assay type: functional; conditions: route oral
# [14] = system: Rattus norvegicus; assay: Compound was evaluated in vivo for inhibition of the AII pressor response in normotensive rat at dose 1 mg/kg, p.o. after >5 hour; assay type: functional; conditions: route oral
# [15] = system: Rattus norvegicus; assay: Compound was evaluated in vivo for inhibition of the AII pressor response in normotensive rat at dose 0.03 mg/kg, iv; assay type: functional
# [16] = system: Rattus norvegicus; assay: Compound was evaluated in vivo for inhibition of the AII pressor response in normotensive rat at dose 0.03 mg/kg, po; assay type: functional
# [17] = system: Rattus norvegicus; assay: Compound was evaluated in vivo for inhibition of the AII pressor response in normotensive rat at dose 0.1 mg/kg, iv after 2.5 hour; assay type: functional
# [18] = system: Rattus norvegicus; assay: Compound was evaluated in vivo for inhibition of the AII pressor response in normotensive rat at dose 0.1 mg/kg, p.o. after >3 hour; assay type: functional; conditions: route oral
# [19] = system: Rattus norvegicus; assay: Compound was evaluated in vivo for inhibition of the AII pressor response in normotensive rat at dose 0.3 mg/kg, iv after 4 hour; assay type: functional
# [20] = system: Rattus norvegicus; assay: Compound was evaluated in vivo for inhibition of the AII pressor response in normotensive rat at dose 1 mg/kg, iv after >6 hour; assay type: functional
# [21] = system: Rattus norvegicus; assay: Compound was evaluated in vivo for inhibition of the AII pressor response in normotensive rat at dose 0.3 mg/kg, p.o. after 3.5 hour; assay type: functional; conditions: route oral
# [22] = system: Rattus norvegicus; assay: Compound was evaluated in vivo for inhibition of the AII pressor response in normotensive rat at dose 1 mg/kg, iv after 1 hour; assay type: functional
# [23] = system: Rattus norvegicus; assay: Compound was evaluated in vivo for inhibition of the AII pressor response in normotensive rat at dose 1 mg/kg, iv after <0.5 hour; assay type: functional
# [24] = system: Rattus norvegicus; assay: Compound was evaluated in vivo for inhibition of the AII pressor response in normotensive rat at dose 1 mg/kg, iv; assay type: functional
# [25] = system: Rattus norvegicus; assay: Compound was evaluated in vivo for inhibition of the AII pressor response in normotensive rat at dose 3 mg/kg, iv after 2.5 hour; assay type: functional
# [26] = system: Rattus norvegicus; assay: Compound was evaluated in vivo for inhibition of the AII pressor response in normotensive rat at dose 3 mg/kg, p.o. after 4.2 hour; assay type: functional; conditions: route oral
# [27] = system: Rattus norvegicus; assay: Compound was evaluated in vivo for inhibition of the AII pressor response in normotensive rat at dose 1 mg/kg, iv after 4.5 hour; assay type: functional
# [28] = system: Rattus norvegicus; assay: Compound was evaluated in vivo for inhibition of the AII pressor response in normotensive rat at dose 1 mg/kg, p.o. after 0.2 hour; assay type: functional; conditions: route oral
# [29] = system: Rattus norvegicus; assay: Compound was evaluated in vivo for inhibition of the AII pressor response in normotensive rat at dose 1 mg/kg, iv after 1.2 hour; assay type: functional
IC50 [1] [nM],IC50 [2] [nM],Activity [3] [nM],Duration [4],Compound,further results
1,0.9,> 1000,1.8 h,CCCCc1nc2ccc([S+](C)[O-])cc2c(=O)n1Cc1ccc(-c2ccccc2-c2nn[nH]n2)cc1 (centres undefined),inhibition in vivo at 1 mg/kg [5]: 89%
3,7.6,> 1000,0.5 h,CCCCc1nc2ccc(S(C)(=O)=O)cc2c(=O)n1Cc1ccc(-c2ccccc2-c2nn[nH]n2)cc1,inhibition in vivo at 1 mg/kg [6]: 79%
120,–,–,–,CCCCc1nc2ccc(NS(=O)(=O)C(F)(F)F)cc2c(=O)n1Cc1ccc(-c2ccccc2-c2nn[nH]n2)cc1,–
1,–,> 1000,0 h,CCCCc1nc2ccc(OC(=O)NC(C)C)cc2c(=O)n1Cc1ccc(-c2ccccc2-c2nn[nH]n2)cc1,inhibition in vivo at 0.3 mg/kg [8]: 30%
5,4,> 1000,–,CCCCc1nc2ccc(C(C)C)cc2c(=O)n1Cc1ccc(-c2ccccc2-c2nn[nH]n2)cc1,Duration [9]: >6 h; inhibition in vivo at 3 mg/kg [10]: 90%; inhibition in vivo at 3 mg/kg [11]: 72%; inhibition in vivo at 1 mg/kg [12]: 34%
4,–,–,–,CCCCc1nc2ccc(CC)cc2c(=O)n1Cc1ccc(-c2ccccc2-c2nnn[nH]2)cc1,–
–,–,> 1000,> 6 h and 4 h and 2.5 h,CCCCc1nc2ccc(NC(=O)N(C)C(C)C)cc2c(=O)n1Cc1ccc(-c2ccccc2-c2nn[nH]n2)cc1,Duration [9]: >5 h and >3.5 h and >3 h; inhibition in vivo at 0.3 mg/kg [13]: 80%; inhibition in vivo at 1 mg/kg [14]: 84%; inhibition in vivo at 0.03 mg/kg [15]: 15%; inhibition in vivo at 0.03 mg/kg [16]: 16%; inhibition in vivo at 0.1 mg/kg [17]: 85%; inhibition in vivo at 0.1 mg/kg [18]: 58%; inhibition in vivo at 0.3 mg/kg [19]: 96%; inhibition in vivo at 1 mg/kg [20]: 94%
–,–,> 1000,–,CCCCc1nc2ccc(N(C)C(=O)OCC(C)C)cc2c(=O)n1Cc1ccc(-c2ccccc2-c2nn[nH]n2)cc1,Duration [9]: 3.5 h; inhibition in vivo at 0.3 mg/kg [21]: 60%; inhibition in vivo at 1 mg/kg [20]: 72%
–,1.1,–,–,CCCCc1nc2ccc(C)cc2c(=O)n1Cc1ccc(-c2ccccc2-c2nnn[nH]2)cc1,–
8,1.1,–,–,CCCCc1nc2ccc(NCc3ccccc3)cc2c(=O)n1Cc1ccc(-c2ccccc2-c2nn[nH]n2)cc1,–
5,–,> 1000,> 0.5 h,CCCCc1nc2ccc(N(C)C)cc2c(=O)n1Cc1ccc(-c2ccccc2-c2nn[nH]n2)cc1,inhibition in vivo at 1 mg/kg [23]: 55%
–,–,> 1000,–,CCCCc1nc2ccc(C)cc2c(=O)n1Cc1ccc(-c2ccccc2-c2nn[nH]n2)cc1,Duration [9]: 4.2 h; inhibition in vivo at 1 mg/kg [24]: 28%; inhibition in vivo at 3 mg/kg [25]: 76%; inhibition in vivo at 3 mg/kg [26]: 64%
–,–,> 1000,4.5 h,CCCCc1nc2ccc(N)cc2c(=O)n1Cc1ccc(-c2ccccc2-c2nn[nH]n2)cc1,Duration [9]: 0.2 h; inhibition in vivo at 1 mg/kg [27]: 93%; inhibition in vivo at 1 mg/kg [28]: 32%
2,–,–,–,CCCCc1nc2ccc(NC)cc2c(=O)n1Cc1ccc(-c2ccccc2-c2nnn[nH]2)cc1,–
–,–,> 1000,1.2 h,CCCCc1nc2ccc(NC)cc2c(=O)n1Cc1ccc(-c2ccccc2-c2nn[nH]n2)cc1,inhibition in vivo at 1 mg/kg [29]: 94%

# Second part, the compound before the results:
Compound,IC50 [1] [nM],IC50 [2] [nM],Activity [3] [nM],Duration [4],further results
Nc1ccc2nc(-c3ccc(-c4ccccc4C(=O)O)cc3)n(Cc3ccc(-c4ccccc4-c4nn[nH]n4)cc3)c(=O)c2c1,33,–,–,–,–
CCCCC(=O)Nc1ccc2nc(CCCC)n(Cc3ccc(-c4ccccc4-c4nnn[nH]4)cc3)c(=O)c2c1,–,8.9,–,–,–
CCCCc1nc2ccc(N(C)C(=O)N(C)C(C)C)cc2c(=O)n1Cc1ccc(-c2ccccc2-c2nnn[nH]2)cc1,–,0.58,–,–,–
CCCCc1nc2ccc(-c3ccc(Cl)cc3)cc2c(=O)n1Cc1ccc(-c2ccccc2-c2nn[nH]n2)cc1,–,30,–,–,–
CCCCc1nc2cc(OC)c(OC)cc2c(=O)n1Cc1ccc(-c2ccccc2-c2nn[nH]n2)cc1,–,–,> 1000,0.2 h,inhibition in vivo at 1 mg/kg [7]: 30%
CCCCc1nc2ccc(NC(=O)OCC(C)C)cc2c(=O)n1Cc1ccc(-c2ccccc2-c2nnn[nH]2)cc1,6.4,1.6,–,–,–
Cc1ccc2nc(-c3ccc(-c4ccccc4C(=O)O)cc3)n(Cc3ccc(-c4ccccc4-c4nn[nH]n4)cc3)c(=O)c2c1,92,–,–,–,–
O=C(O)c1ccccc1-c1ccc(-c2nc3ccccc3c(=O)n2Cc2ccc(-c3ccccc3-c3nn[nH]n3)cc2)cc1,20,–,–,–,–
CCCCc1nc2ccc(N(C)C(=O)OCc3ccccc3)cc2c(=O)n1Cc1ccc(-c2ccccc2-c2nn[nH]n2)cc1,–,–,> 1000,0 h,inhibition in vivo at 0.3 mg/kg [8]: 28%
CCCCc1nc2ccc(N(C)C(=O)OCC(C)C)cc2c(=O)n1Cc1ccc(-c2ccccc2-c2nnn[nH]2)cc1,3.4,1.6,–,–,–
CCCCc1nc2ccc(NC(=O)OCc3ccccc3)cc2c(=O)n1Cc1ccc(-c2ccccc2-c2nn[nH]n2)cc1,4.3,–,> 1000,1 h,inhibition in vivo at 1 mg/kg [22]: 84%
CCCCc1nc2ccc(-c3ccccn3)cc2c(=O)n1Cc1ccc(-c2ccccc2-c2nnn[nH]2)cc1,–,5,–,–,–
CCCCc1nc2ccc(O)cc2c(=O)n1Cc1ccc(-c2ccccc2-c2nnn[nH]2)cc1,27,–,–,–,–
CC(=O)Nc1ccc2nc(-c3ccc(-c4ccccc4C(=O)O)cc3)n(Cc3ccc(-c4ccccc4-c4nn[nH]n4)cc3)c(=O)c2c1,50,–,–,–,–
CCCCc1nc2ccc(N(C)C(=O)OCc3ccccc3)cc2c(=O)n1Cc1ccc(-c2ccccc2-c2nnn[nH]2)cc1,0.83,–,–,–,–
O=C(O)c1ccccc1-c1ccc(-c2nc3ccc([N+](=O)[O-])cc3c(=O)n2Cc2ccc(-c3ccccc3-c3nnn[nH]3)cc2)cc1,940,–,–,–,–
